Data on 2 compounds can be found in patent US6455593B1, “Method of dynamic retardation of cell cycle kinetics to potentiate cell damage” (priority 1995, dated 2002).

Experiment [1] relates to human promonocytic lymphoma cells (U937). As to the kind of experiment: Microculture indicator system (MIS), MTT growth inhibition assay with bivariate serial dilutions. It is filed as cell-based. The settings on record: for inhibition at 0.01 µg/mL / inhibition at 0.02 µg/mL / inhibition at 0.03 µg/mL / inhibition at 0.06 µg/mL / inhibition at 0.5 µg/mL / inhibition at 1 µg/mL / inhibition at 2 µg/mL / inhibition at 4 µg/mL: Homo sapiens. In a few lines:
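U937 human promonocytic lymphoma cells were tested in flat-bottom 96-well plates. Two agents were each diluted two-fold by serial mixing, then combined into bivariate dilution series before about 1×10^5 cells per well were added in RPMI 1640 with 10% Nurserum and antibiotics, 100 μl per well. Plates were incubated at 37° C. Thirty μl of 0.5% MTT was then added for 3 hr. Formazan was dissolved overnight with 120 μl of 10 % SDS/0.01 N HCl and absorbance was read at 570 nm against a cell-free blank.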
On the technique in general: Formazan colour is commonly taken as a measure of viable cells.

Experiment [2] relates to U937 cells. In words: DNA gel electrophoresis for DNA fragmentation (apoptosis). It is filed as cell-based, human. The settings on record: 50 nM STSP, 8 hours, U937. The protocol: Samples of the U937 cells were exposed to a series of concentrations of dThd for 24 hr. Their DNA was isolated by lysis of cell samples in TE buffer containing TRIS 10 mM, EDTA 10 mM, SDS 0.5% and proteinase K 200 μg/ml at […] for 2 h. The proteins were precipitated in a IM solution of NaCl and centrifuged at 2,500×g for 30 min at […] DNAse free RNase (25 μg/ml) was added to the supernatant and incubated for 30 min at 37° C. Spectrophotometric quantitation of the DNA in the supernatant was quantitated by absorbance spectrophotometry at 260 nm. Volumes adjusted to contain equal amounts of DNA were mixed with a loading buffer of 40% (w/v) sucrose, 0.1M EDTA pH 8.0, 0.5% (w/v) sodium lauryl sulphate and 0.05% (w/v) bromophenol blue. […] Separated bands of DNA were stained with ethidium bromide and photographed in UV light (Fotodyne Inc.). […] The lowest molecular weight (about 180 bp) was determined with a standard 123 bp ladder from Sigma Chemical Co. (Cat. #D5042). The result shown is a classical “DNA ladder,” characteristic of the fragmentation of DNA macromolecules in apoptosis. See Tomei, supra; Obeid, supra; Gold, supra.

Where two headings read alike, the source gives them in different places.

For orientation: inhibition means the drop in the measured response relative to a control, in per cent. For the compound `C[C@@]1(CO)[C@H](O)CC[C@@]2(C)[C@H]1CC[C@H]1C[C@@H]3C[C@@]12CC[C@]3(O)CO` [Aph, aphidicolin], the inhibition at 0.01 µg/mL in experiment [1] (U-937, 4 h, U937, Aph 0.01 ug/ml 4 H, K252a 0, read-out: MTT % inhibition, Aph only) was determined as 5%; in experiment [1] (U-937, U937, total 18 H, STSP 14 H, Aph 4 H, Aph 0.01 ug/ml, STSP nM by row: r7 100, r8 50, r9 25, r10 12.5, r11 6.25, r12 3.13, r13-r14 0, read-out: Growth inhibition (MTT)), 1%. Further, the inhibition at 0.02 µg/mL was determined as 0% in experiment [1] (U-937, 4 h, U937, Aph 0.02 ug/ml 4 H, K252a 0, read-out: MTT % inhibition, Aph only) and 7% in experiment [1] (U-937, U937, total 18 H, STSP 14 H, Aph 4 H, Aph 0.02 ug/ml, STSP nM by row: r7 100, r8 50, r9 25, r10 12.5, r11 6.25, r12 3.13, r13-r14 0, read-out: Growth inhibition (MTT)). The inhibition at 0.03 µg/mL is 1% in experiment [1] (U-937, 4 h, U937, Aph 0.03 ug/ml 4 H, K252a 0, read-out: MTT % inhibition, Aph only) and 6% in experiment [1] (U-937, U937, total 18 H, STSP 14 H, Aph 4 H, Aph 0.03 ug/ml, STSP nM by row: r7 100, r8 50, r9 25, r10 12.5, r11 6.25, r12 3.13, r13-r14 0, read-out: Growth inhibition (MTT)). For the same compound, the inhibition at 0.06 µg/mL in experiment [1] (U-937, 4 h, U937, Aph 0.06 ug/ml 4 H, K252a 0, read-out: MTT % inhibition, Aph only) came to 14%; in experiment [1] (U-937, U937, total 18 H, STSP 14 H, Aph 4 H, Aph 0.06 ug/ml, STSP nM by row: r7 100, r8 50, r9 25, r10 12.5, r11 6.25, r12 3.13, r13-r14 0, read-out: Growth inhibition (MTT)), 9%. In addition, the inhibition at 0.5 µg/mL was 9% in experiment [1] (U-937, 4 h, U937, Aph 0.50 ug/ml 4 H, K252a 0, read-out: MTT % inhibition, Aph only) and 21% in experiment [1] (U-937, U937, total 18 H, STSP 14 H, Aph 4 H, Aph 0.50 ug/ml, STSP nM by row: r7 100, r8 50, r9 25, r10 12.5, r11 6.25, r12 3.13, r13-r14 0, read-out: Growth inhibition (MTT)). The inhibition at 1 µg/mL amounted to 14% in experiment [1] (U-937, 4 h, U937, Aph 1.00 ug/ml 4 H, K252a 0, read-out: MTT % inhibition, Aph only) and 22% in experiment [1] (U-937, U937, total 18 H, STSP 14 H, Aph 4 H, Aph 1.00 ug/ml, STSP nM by row: r7 100, r8 50, r9 25, r10 12.5, r11 6.25, r12 3.13, r13-r14 0, read-out: Growth inhibition (MTT)). The inhibition at 2 µg/mL in experiment [1] (U-937, 4 h, U937, Aph 2.00 ug/ml 4 H, K252a 0, read-out: MTT % inhibition, Aph only) worked out at 24%; in experiment [1] (U-937, U937, total 18 H, STSP 14 H, Aph 4 H, Aph 2.00 ug/ml, STSP nM by row: r7 100, r8 50, r9 25, r10 12.5, r11 6.25, r12 3.13, r13-r14 0, read-out: Growth inhibition (MTT)) it was 31%. The inhibition at 4 µg/mL in experiment [1] (U-937, 4 h, U937, Aph 4.00 ug/ml 4 H, K252a 0, read-out: MTT % inhibition, Aph only) stood at 38%; in experiment [1] (U-937, U937, total 18 H, STSP 14 H, Aph 4 H, Aph 4.00 ug/ml, STSP nM by row: r7 100, r8 50, r9 25, r10 12.5, r11 6.25, r12 3.13, r13-r14 0, read-out: Growth inhibition (MTT)), 30%. The “Potentiation of DNA damage by STSP as RA” value in experiment [1] (U937, concentrations less than IC40, STSP as the TCI) is reported as “proved successful in potentiating DNA damage by STSP”. Further, in experiment [1] (U937, Aph alone, every Aph concentration 4.00-0.01 ug/ml), the “combined results ratio, Aph only (baseline line)” value is 1.0. Moreover, the Combined results ratio in experiment [1] (U937, total 18 H, STSP 14 H, Aph 4 H, Aph 0.01 ug/ml, STSP nM by row: r7 100, r8 50, r9 25, r10 12.5, r11 6.25, r12 3.13, r13-r14 0) is 1.0; in experiment [1] (U937, total 18 H, STSP 14 H, Aph 4 H, Aph 0.02 ug/ml, STSP nM by row: r7 100, r8 50, r9 25, r10 12.5, r11 6.25, r12 3.13, r13-r14 0), 1.0; in experiment [1] (U937, total 18 H, STSP 14 H, Aph 4 H, Aph 0.03 ug/ml, STSP nM by row: r7 100, r8 50, r9 25, r10 12.5, r11 6.25, r12 3.13, r13-r14 0), 1.0; in experiment [1] (U937, total 18 H, STSP 14 H, Aph 4 H, Aph 0.06 ug/ml, STSP nM by row: r7 100, r8 50, r9 25, r10 12.5, r11 6.25, r12 3.13, r13-r14 0), 1.0; in experiment [1] (U937, total 18 H, STSP 14 H, Aph 4 H, Aph 0.50 ug/ml, STSP nM by row: r7 100, r8 50, r9 25, r10 12.5, r11 6.25, r12 3.13, r13-r14 0), 1.0; in experiment [1] (U937, total 18 H, STSP 14 H, Aph 4 H, Aph 1.00 ug/ml, STSP nM by row: r7 100, r8 50, r9 25, r10 12.5, r11 6.25, r12 3.13, r13-r14 0), 1.0. Also, the Combined results ratio in experiment [1] (U937, total 18 H, STSP 14 H, Aph 4 H, Aph 2.00 ug/ml, STSP nM by row: r7 100, r8 50, r9 25, r10 12.5, r11 6.25, r12 3.13, r13-r14 0) is recorded as 1.0; in experiment [1] (U937, total 18 H, STSP 14 H, Aph 4 H, Aph 4.00 ug/ml, STSP nM by row: r7 100, r8 50, r9 25, r10 12.5, r11 6.25, r12 3.13, r13-r14 0), 1.0.

With `CN[C@@H]1C[C@H]2O[C@@](C)([C@@H]1OC)n1c3ccccc3c3c4c(c5c6ccccc6n2c5c31)C(=O)NC4` [STSP, staurosporine], in experiment [2], the “DNA ladder pattern fragmentation” value is reported as “DNA fragmentation in U937 cells in 8 hours”.
